Like-named read-outs stand apart in the source and are kept apart here.
Tests used:
[1] = system: Staphylococcus epidermis ATCC 35984; test: MIC assay (planktonic growth inhibition, OD600); assay type: cell-based, S. epidermidis; conditions: for IC50: read-out: S. epidermidis MIC50; for IC90: read-out: S. epidermidis MIC90
Description: (§1) The exact weighed amount was noted and the volume of solvent to reach a 80 mM dilution calculated. Half of the volume was added first, by adding Tween 80. In a second step, the other half of the volume DMSO was added and the closed tube inverted 5-10 times and then vortexed very thoroughly for at least 30 seconds. If after this procedure unsolved material was still visible, the tube was placed in a shaker at 37° C. at 150 rpm for at least 30 minutes. […] For the MBEC assay (method 1.3) the solution needs to be diluted to a final concentration of 2 mM in 0.9% saline solution and then further diluted to 1 mM, 0.5 mM, 0.25 mM and 0.125 mM in saline. Those dilutions were added as treatment to the 96 well plates with the grown biofilm (see method 3).
(§2) Frozen aliquots of Staphylococcus epidermis ATCC 35984 and Pseudomonas aeruginosa ATCC 27853 were used to inoculate a tryptic soy agar (TSA) plate and incubated overnight at 37° C. After incubation 3-5 well-isolated colonies with the same morphology were selected from the TSA plate and resuspended in 2 mL 0.9% saline solution with 3-6 glass beads and vortexed. The optical density at 600 nm (OD600) of the bacterial suspension was measured with a spectrophotometer (Evolution™ 201/220 UV-Visible Spectrophotometer, Thermo Fisher Scientific) and diluted to an OD600 of 0.0008, which resembles 10^6 CFU/mL.
(§3) The MIC assay was performed in a flat-bottom 96-microtiter plate. 50 μL of MHB-II was added into columns 2-11, and 100 μL to column 12 for sterility control. 100 μL of the 8 mM test compound solution (method 1) was added to column 1. A two-fold dilution series of the solution in MHB-II was achieved by resuspending 50 μL of the 8 mM solution from column 1 to column 2. This step was repeated until column 10. The respective concentration of Tween 80 and DMSO in column 1 was 2.5%, which is two-fold diluted throughout the plate. 50 μL of the bacterial suspension was added to column 1-11. The microtiter plates were sealed with adhesive polyethylene film for sealing microplates (Diversified Biotech) and incubated for 24 h at 37° C. After incubation the OD was measured at 600 nm with the Varioskan (Thermo Fisher Scientific). […] This assay was repeated three times in three independent experiments.

[2] = system: Pseudomonas aeruginosa ATCC 27853; test: MIC assay (planktonic growth inhibition, OD600); assay type: cell-based, P. aeruginosa; conditions: for IC50 / IC90: Pseudomonas aeruginosa; for IC50: read-out: P. aeruginosa MIC50; for IC90: read-out: P. aeruginosa MIC90
Description: as §1, §2, §3

[3] = system: Staphylococcus epidermis ATCC 35984 biofilm; test: MBEC assay (biofilm eradication, CFU log reduction); assay type: cell-based, S. epidermidis; conditions: for minimal effective concentration: read-out: S. epidermidis MBEC mM with log reduction ≥1
Description: as §1
(§4) Frozen aliquots of Staphylococcus epidermis ATCC 35984 and Pseudomonas aeruginosa ATCC 27853 were used to inoculate 20 mL of Tryptic Soy Broth (TSB) in a 100 mL Erlenmeyer flask at 37° C. and 150 rpm and incubated overnight (Infors). The OD600 of the overnight culture was measured with a spectrophotometer (Evolution™ 201/220 UV-Visible Spectrophotometer, Thermo Fisher Scientific) and diluted to an OD600 of 0.2, which resembles 10^8 CFU/mL. The cell suspension of OD600=0.2 was seeded into a U-bottom-shaped 96 well plates by pipetting 100 μL per well in column 1-11, column 12 was filled with 100 μL medium as sterility control. The 96 well plates were sealed with adhesive polyethylene film for sealing microplates and incubated for 48 h at 37° C. at static conditions. After the biofilm growth phase, 100 μL of treatment solutions (method 1) were added to the vials resulting in treatment concentrations of 1 mM, 0.5 mM, 0.25 mM and 0.125 mM and with the respective concentration of Tween 80 and DMSO each at 0.63%, 0.32%, 0.16% and 0.08%. The same concentration was applied to four different wells of the same bacterial strain, resulting in four replicates for each concentration and strain. The treatment was incubated for 20 h at 37° C. at static conditions. After the treatment the supernatant was carefully removed and the well with the biofilm washed carefully for one time with 200 μL 0.9% saline solution. 200 μL saline solution was added and the biofilm was resuspended thoroughly. When fully homogenized then 20 μL was used for the first dilution in 180 μL 0.9% saline solution, which was prepared in a second plate. This dilution was continued until dilution step 10E−5 and 100 μL of the 10E−4 and 10E−5 dilution plated on a TSA plate. The TSA plates were incubated at 37° C. for 24 h. The colonies on the plates were enumerated, the colony forming units per mL of the dispensed biofilm and averages thereof and the log reduction in comparison with the untreated sample from the same wells plate calculated. Reduction of colony forming units goes hand in hand with the thickness of the biofilm and thus with the number bacteria that are present in the biofilm. Therefore, a significant reduction of colony forming units in the biofilm was defined at the value of log reduction ≥1 or more. This assay was repeated two times in two independent experiments)

[4] = system: Pseudomonas aeruginosa ATCC 27853 biofilm; test: as above; assay type: cell-based, P. aeruginosa; conditions: for minimal effective concentration: Pseudomonas aeruginosa, read-out: P. aeruginosa MBEC mM with log reduction ≥1
Description: as §1, §4

[5] = minimal concentration reducing final OD600 by 50%, 24 h at 37° C.
[6] = minimal concentration reducing final OD600 by 90%, 24 h at 37° C.
[7] = 48 h grown biofilm, 20 h treatment, CFU log reduction vs untreated
[8] = ATCC27853, minimal concentration reducing final OD600 by 50%, 24 h at 37° C.
[9] = ATCC27853, minimal concentration reducing final OD600 by 90%, 24 h at 37° C.
[10] = ATCC27853, 48 h grown biofilm, 20 h treatment, CFU log reduction vs untreated

Molecule | S. epidermidis MIC50 [1, 5] [mM] | S. epidermidis MIC90 [1, 6] [mM] | P. aeruginosa MIC50 [2, 5] [mM] | P. aeruginosa MIC90 [2, 6] [mM] | S. epidermidis MBEC mM with log reduction ≥1 [3, 7] [mM] | P. aeruginosa MBEC mM with log reduction ≥1 [4, 7] [mM] | further results
Di-isopropyl thiosulfonate | 2 | 2 | 2 | 2 | >1 | >1 | 
CCSSCC [Di-ethyl disulfide] |  |  |  |  |  |  | IC50 ([1]; 24 h): > 4 mM; IC90 ([1]; 24 h): > 4 mM; IC50 ([2]; ATCC27853, 24 h): > 4 mM; IC90 ([2]; ATCC27853, 24 h): > 4 mM; minimal effective concentration ([3]; 20 h): > 1 mM; minimal effective concentration ([4]; ATCC27853, 20 h): > 1 mM
Bis(4-Chlorophenyl) thiosulfonate [Bis (4-chlorophenyl) thiosulfonate] | 0.03 | 0.06 | 0.25 | 2 | >1 | >1 | 
CCCCCCCCCCS[S+]([O-])CCCCCCCCCC (stereo not drawn) [S-decyl-1-decane thiosulfinate] | >4 | >4 | >4 | >4 | >1 | >1 | 
CCCSS(=O)(=O)c1ccc(C)cc1 [S-propyl-4-methylbenzene thiosulfonate] | 0.06 | 0.13 | 0.06 | 0.06 | 0.5 | >1 | 
c1coc(CSSCc2ccco2)c1 [Di-furfuryl disulfide] |  |  |  |  |  |  | IC50 [1, 5]: 2 mM; IC90 [1, 6]: > 4 mM; IC50 [2, 8]: 2 mM; IC90 [2, 9]: > 4 mM; minimal effective concentration [3, 7]: > 1 mM; minimal effective concentration [4, 10]: > 1 mM
Bis(4-Fluorophenyl) thiosulfonate [Bis (4-fluorophenyl) thiosulfonate] | 0.25 | 2 | 2 | 2 | >1 | >1 | 
CCCSSC [Methyl propyl disulfide] |  |  |  |  |  |  | IC50 [1, 5]: > 4 mM; IC90 [1, 6]: > 4 mM; IC50 [2, 8]: > 4 mM; IC90 [2, 9]: > 4 mM; minimal effective concentration [3, 7]: > 1 mM; minimal effective concentration [4, 10]: > 1 mM
CCCCCCCCCCSSCCCCCCCCCC [Di-n-decyl disulfide] |  |  |  |  |  |  | IC50 [1, 5]: > 4 mM; IC90 [1, 6]: > 4 mM; IC50 [2, 8]: > 4 mM; IC90 [2, 9]: > 4 mM; minimal effective concentration [3, 7]: > 1 mM; minimal effective concentration [4, 10]: > 1 mM
O=S(=O)(Cc1ccccc1)SCc1ccccc1 [Di-benzyl thiosulfonate] | 2 | 4 | 4 | >4 | 0.125 | 0.125 | 
Bis(4-chlorophenyl) thiosulfinate [Bis (4-chlorophenyl) thiosulfinate] | 0.02 | 0.02 | 0.02 | 0.02 | >1 | >1 | 
CSSC [Di-methyl disulfide] |  |  |  |  |  |  | IC50 ([1]; 24 h): > 4 mM; IC90 ([1]; 24 h): > 4 mM; IC50 ([2]; ATCC27853, 24 h): > 4 mM; IC90 ([2]; ATCC27853, 24 h): > 4 mM; minimal effective concentration ([3]; 20 h): > 1 mM; minimal effective concentration ([4]; ATCC27853, 20 h): > 1 mM
CCCCCCSSCCCCCC [Di-n-hexyl disulfide] |  |  |  |  |  |  | IC50 [1, 5]: > 4 mM; IC90 [1, 6]: > 4 mM; IC50 [2, 8]: > 4 mM; IC90 [2, 9]: > 4 mM; minimal effective concentration [3, 7]: > 1 mM; minimal effective concentration [4, 10]: > 1 mM
Bis(4-fluorophenyl) thiosulfinate [Bis (4-fluorophenyl) thiosulfinate] | 0.125 | 0.25 | 1 | 4 | >1 | >1 | 
